Patent US9210935B2, “Pesticide composition comprising fosetyl-aluminium, propamocarb-HCl and an insecticide active substance” (BAYER INTELLECTUAL PROPERTY GMBH, priority 2006, dated 2015)

Columns and labels:
Assay type in all cases: in vivo
[1] = test system: larvae of the fall army worm (Spodoptera frugiperda); assay: Spodoptera frugiperda test (cabbage leaf dip, mortality); settings: mortality after 4 days, cabbage leaves dipped
[2] = test system: larvae of the diamond black moth Plutella xylostella; assay: Plutella xylostella test (cabbage leaf dip, mortality); settings: mortality after 6 days, cabbage leaves dipped
[3] = test system: larvae of the beet army worm (Spodoptera exigua); assay: Spodoptera exigua test (cabbage leaf dip, mortality); settings: mortality after 4 days, cabbage leaves dipped

Compound `CN/C(=N\[N+](=O)[O-])NCc1cnc(Cl)s1` [clothianidin] has an Efficacy ([1]; rate of application 4 ppm) of 50%.
Work on `O=[N+]([O-])NC1=NCCN1Cc1ccc(Cl)nc1` [imidacloprid] yielded an Efficacy ([2]; rate of application 100 ppm) of 15%.
`CCCOC(=O)NCCCN(C)C.Cl` [propamocarb-HCl, propyl[3-(dimethylamino)propyl]carbamate hydrochloride] was tested, and the Efficacy ([3]; rate of application 200 ppm) was 0%, the Efficacy ([1]; rate of application 200 ppm) was 10% and the Efficacy ([2]; rate of application 200 ppm) was 0%.
Compound `N#C/N=C1\SCCN1Cc1ccc(Cl)nc1` [thiacloprid] has an Efficacy ([1]; rate of application 20 ppm) of 0%.
Work on `CN1COCN(Cc2cnc(Cl)s2)/C1=N\[N+](=O)[O-]` [thiamethoxam] yielded an Efficacy ([3]; rate of application 20 ppm) of 0%.
